Experiment [1] has as its system androgen-independent prostate cancer. The conditions noted are these: minimally pretreated patients with androgen-independent prostate cancer; cited from earlier work.
The test system of experiment [2] is AR and its target gene product PSA in LNCaP cells. Nature of the experiment: Western blot of AR and PSA expression in LNCaP cells. It is filed as cell-based. The conditions noted are these: PP2A inhibitor co-treatment with VES or TS-1. The protocol:
(§1) Cells cultured in T25 flasks were collected by scraping, and cell pellets were washed once with PBS. Cells were lysed in a lysis buffer consisting of 1% SDS, 10 mM EDTA and 50 mM Tris-HCl, pH 8.1, in the presence of a commercial protease inhibitor cocktail from Aldrich-Sigma (2 mM AEBSF, 1 mM EDTA, 130 μM bestatin, 14 μM E-64, 1 μM leupeptin, and 0.3 μM aprotinin). Following a 10-sec sonication using 20% output in a Virsonic 300 sonicator (Virtis, Gardiner N.Y.) to disrupt cellular organelles and genomic DNA, cell lysates were centrifuged at 15,200×g for 15 minutes. One μL of the suspension was used for protein determination using a colorimetric BCA assay (Pierce, Rockford, Ill.), and to the remaining solution was added an equivalent volume of 2×SDS-polyacrylamide gel electrophoresis sample loading buffer (62.5 mM Tris-HCl, pH 6.8, 4% SDS, 5% β-mercaptoethanol, 20% glycerol, and 0.1% bromophenol blue), and boiled for 5 min. Equal amounts of proteins were resolved in 8% SDS-polyacrylamide gels, and transferred to nitrocellulose membranes using a semidry transfer cell. The transblotted membrane was washed twice with Tris-buffered saline containing 0.1% Tween 20 (TBST). After blocking with TBST containing 5% nonfat milk for 40 min, the membrane was incubated with the appropriate primary antibody in TBST-1% nonfat milk at 4° C. overnight. All primary antibodies were diluted 1:1000 in 1% nonfat milk-containing TBST. After treatment with the primary antibody, the membrane was washed three times with TBST for a total of 15 min, followed by incubation with goat anti-rabbit or anti-mouse Immunoglobulin G (IgG)-horseradish peroxidase conjugates (diluted 1:2000) for 1 h at room temperature and four washes with TBST for a total of 1 h. The immunoblots were visualized by enhanced chemiluminescence.
For orientation: Immunoblotting shows a protein as a band on a membrane.

The next experiment concerns Sp1. The experiment in a line: Sp1 protein expression, stability and ubiquitination in LNCaP cells. The conditions noted are these: proteasome inhibition, LNCaP cells treated with TS-1. It is filed as cell-based. Here is the method:
as §1
LNCaP cells were co-transfected with 5 μg each of Flag-Sp1 and HA-ubiquitin plasmids in an Amaxa Nucleofector using a LNCaP-specific nucleofector kit. These transiently transfected cells were seeded in 6-well plates at 2×10^5 per well. After 48-h incubation, cells were exposed to VES or TS-1 at the indicated concentration for 48 h, and lysed by a radioimmunoprecipitation assay lysis buffer (Santa Cruz Biotechnology) in the presence of a freshly prepared cocktail of phosphatase and protease inhibitors (2 mmol/L AEBSF, 1 mM EDTA, 130 μM bestatin, 14 μM E-64, 1 μM leupeptin, and 0.3 μM aprotinin, 2 mM imidazole, 1 mM sodium fluoride, 1.15 mM sodium molybdate, 1 mM sodium orthovanadate, and 4 mmol/L sodium tartrate dihydrate). After centrifugation at 13,000×g for 15 min, the supernatants were collected, preincubated with protein A/G agarose (Santa Cruz Biotechnology) for 15 min, and centrifuged at 1,000×g for 5 min. Supernatant (20 μL) were stored at 4° C. to be used as input, whereas the remaining supernatant was exposed to 4 μg of anti-Sp1 antibodies at 4° C. for 12 h, followed by protein A/G agarose beads at 4° C. for another 2 h. After brief centrifugation, immunoprecipitates were collected, washed with the aforementioned lysis buffer four times, suspended in 2×SDS sample buffer, and subjected to Western blot analysis with antibodies against HA and Flag.

Residues, ends and D or L forms follow the SMILES beside them. *: point of attachment. Cbz = O=C(OCc1ccccc1)*

Consider 4 compounds from patent US8461362B2, “Protein phosphatase 2A-activating agents” (The Ohio State University Research Foundation, priority 2009, dated 2013).

On to `Cn1cncc1[C@@](N)(c1ccc(Cl)cc1)c1ccc2c(c1)c(-c1cccc(Cl)c1)cc(=O)n2C` [R115777], for which the “anti-tumor activity in patients” value in experiment [1] was “little anti-tumor activity”.

As for `C=C1[C@@H](O)[C@@H]2O[C@]3(CC[C@H](/C=C/[C@@H](C)[C@@H]4CC(C)=C[C@@]5(O[C@H](C[C@@](C)(O)C(=O)O)CC[C@H]5O)O4)O3)CC[C@H]2O[C@@H]1[C@@H](O)C[C@H](C)[C@H]1O[C@@]2(CCCCO2)CC[C@H]1C` [okadaic acid], in experiment [2], the “protection from VES/TS-1 suppression of phosphorylation or expression of JNK, Sp1 and AR” value is given as “could protect cells from the suppressive effect”.

In the case of `CC(C)C[C@@H](C=O)NC(=O)[C@H](CC(C)C)NC(=O)[C@H](CC(C)C)NC(=O)OCc1ccccc1` [MG-132] (Cbz-Leu-Leu-Leu-aldehyde), in the experiment with Sp1, the “protection of Sp1 from TS-1-facilitated ablation” value is listed as “protected Sp1 from TS-1-facilitated ablation”.

Consider `CC[C@H](C)[C@H](NC(=O)[C@H]([C@@H](C)CC)N(C)C(C)=O)C(=O)N[C@H](C(=O)N[C@@H](CC(C)C)C(=O)[C@@]1(C)CO1)[C@@H](C)O` [epoxomicin], for which the “protection of Sp1 from TS-1-facilitated ablation” value in the experiment with Sp1 was “protected Sp1 from TS-1-facilitated ablation”.
